Source: patent publication US6926936B2, “Ink-jet recording sheet with improved ozone resistance” (Felix Schoeller Jr. Foto-und Spezialpapiere GmbH & Co. KG, priority 2002, dated 2005)

Test: Dissociation constant (Kb, pKb) of the water-soluble compounds
Excerpt: The following aqueous solutions were applied onto the dye-fixing layer.

Structure (SMILES) | pKb | Kb (dissociation constant)
O=C([O-])c1ccc(O)cc1.[Na+] [4-Hydroxybenzoic acid Na salt] | 12.1 | 
O.O.O.O.O.O.O.O.O.[Na+].[Na+].[Na+].[S-]c1nc([S-])nc([S-])n1 [Trisodium trithiocyanurate nonahydrate] | 3 | 1 × 10^−3
